Columns and labels:
[1] = Pharmacokinetic study in mice, intragastric administration; assay type: in vivo; conditions: mouse, male ICR mice, PO dose 5 mg/kg, plasma
Description: Instrument: API4000+LC/MS instrument manufactured by AB Sciex. All measurement data was collected and processed by Analyst 1.6.3 software, and data was calculated and processed by Microsoft Excel. Using the DAS 3.2.8 software, the statistical moment method was used to calculate the pharmacokinetic parameters. t mainly includes kinetic parameters Tmax, T½, Cmax, AUC(0-t) and the like Column: ACQUITY UPLC BEH C18 (2.1 mm×50 mm, 1.7 μm), column temperature 40° C.; mobile phase A is water (0.1% formic acid+5 mM ammonium acetate), mobile phase B is acetonitrile (0.1% acetic acid). The flow rate was 0.30 ml/min and the isocratic elution of 90% B was maintained for 1.5 minutes. Injection volume: 5 μL.
Animals: 12 male ICR mice, weighing 22-26 g, were used after 2 days of feeding in the laboratory of the experimental animal center. They were fasted 12 hours before the administration and 4 hours after the administration, and were free to drink during the test. Mice were randomly divided into four groups of 3 animals each. After intragastric administration, blood samples were taken at two different time points in each group.
Solvent: 0.5% Methylcellulose (aqueous solution containing 0.4% Tween 80). Formulation of intragastric administration solution. The compound is accurately weighed, added to the solvent, and sonicated at room temperature for 5 minutes to completely dissolve the drug to prepare a drug solution of 0.33 mg/ml.
Drug sample: A representative compound of the structure represented by the patent formula (I) of the present invention generally adopts a plurality of samples having similar structures (molecular weight difference of more than 2 units), accurately weighed, and administered together (cassette PK). This allows multiple compounds to be screened simultaneously and their oral absorption rates compared. Single drug administration was also used to study the pharmacokinetics of drug samples in mice.
Blood was taken from the eyelids at 0.25, 0.5, 1, 2, 4, 8, 12, and 24 hours after intragastric administration. In the heparin-treated tube, the supernatant was centrifuged for LC-MS/MS analysis.
Accurately weigh the compounds to different concentrations, perform quantitative analysis on the mass spectrometer to establish a standard curve, and then test the concentration of the compound in the above plasma to obtain the concentration of the compound at different time points. All the measured data were collected and processed by the relevant software, and the statistical moment method was used to calculate the pharmacokinetic parameters (mainly including the kinetic parameters Tmax, T1/2, Cmax, AUC(0-t), etc.).

[2] = molecular target: CDK4/CycD3 (Homo sapiens, UniProt P11802); assay: CDK4 kinase activity inhibition, Caliper mobility shift assay; assay type: biochemical
CDK4/CycD3, sequence (P11802 whole entry, species assumed): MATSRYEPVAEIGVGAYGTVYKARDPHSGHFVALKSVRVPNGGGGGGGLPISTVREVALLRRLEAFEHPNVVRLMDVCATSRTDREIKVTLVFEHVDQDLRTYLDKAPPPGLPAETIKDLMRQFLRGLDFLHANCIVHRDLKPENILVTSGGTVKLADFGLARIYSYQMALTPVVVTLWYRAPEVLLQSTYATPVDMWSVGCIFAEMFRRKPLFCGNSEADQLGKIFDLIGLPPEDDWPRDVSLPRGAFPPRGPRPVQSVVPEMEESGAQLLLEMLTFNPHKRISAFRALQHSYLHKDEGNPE
CDK4/CycD3, sequence (P30281 whole entry partner, species assumed): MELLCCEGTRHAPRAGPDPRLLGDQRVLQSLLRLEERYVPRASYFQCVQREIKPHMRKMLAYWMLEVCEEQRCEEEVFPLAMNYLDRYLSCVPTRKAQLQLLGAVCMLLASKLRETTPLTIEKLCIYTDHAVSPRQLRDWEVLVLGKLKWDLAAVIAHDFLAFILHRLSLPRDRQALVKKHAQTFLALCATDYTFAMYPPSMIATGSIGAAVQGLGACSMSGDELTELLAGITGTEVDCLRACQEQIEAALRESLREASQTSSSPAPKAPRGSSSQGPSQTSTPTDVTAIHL
Description: (§1) CDK2/CycA2, CDK4/CycD3 and CDK6/cycD3 protein kinase activities were determined using the Caliper mobility shift assay. The compound was dissolved in DMSO and diluted with kinase buffer (CDK2/CycA2 and CDK6/cycD3 with 50 mM HEPES (pH 7.5), 10 mM MgCl2, 0.0015% Brij-35, and 2 mM dithiothreitol; CDK4/CycD3 with 20 mM HEPES (pH 7.5), 10 mM MgCl2, 0.01% Triton X-100, and 2 mM dithiothreitol), 5 μl of a 5-fold final concentration of the compound (10% DMSO) was added to a 384-well plate. Add 10 μL of 2.5-fold […] enzyme solution and incubate for 10 minutes at room temperature, then add 10 μL of 2.5-fold substrate solution (corresponding enzyme and substrate concentration CDK2/CycA2 12 nM, ATP Kin 39 μM; CDK4/CycD3 10 nM, ATP Km 221 μM; CDK6/cycD3 15 nM, ATP Km […]) Incubate at 28° C. (60 min CDK2, 180 min CDK4, 60 min CDK6) followed by 25 μl stop solution (100 mM HEPES (pH 7.5), 0.015% Brij-35, 0.2% Coating Reagent #3, 50 mM EDTA) Stop the reaction. Conversion rate data was read on a Caliper EZ Reader 11 (Caliper Life Sciences). The conversion rate was converted into inhibition rate data (% inhibition rate=(max−conversion rate)/(max−min)*100) Where max is the conversion of the DMSO control and min is the conversion of the enzyme-free control. Curves were plotted with compound concentration and inhibition rate on the horizontal and vertical coordinates, and the curve was fitted using XLFit excel add-in version 4.3.1 software and IC50 was calculated.

[3] = molecular target: CDK2/CycA2 (Homo sapiens, UniProt P24941); assay: CDK2 kinase activity inhibition, Caliper mobility shift assay; assay type: biochemical
Description: as §1

[4] = molecular target: CDK6/cycD3 (Homo sapiens, UniProt Q00534); assay: CDK6 kinase activity inhibition, Caliper mobility shift assay; assay type: biochemical
CDK6/cycD3, sequence (Q00534 whole entry, species assumed): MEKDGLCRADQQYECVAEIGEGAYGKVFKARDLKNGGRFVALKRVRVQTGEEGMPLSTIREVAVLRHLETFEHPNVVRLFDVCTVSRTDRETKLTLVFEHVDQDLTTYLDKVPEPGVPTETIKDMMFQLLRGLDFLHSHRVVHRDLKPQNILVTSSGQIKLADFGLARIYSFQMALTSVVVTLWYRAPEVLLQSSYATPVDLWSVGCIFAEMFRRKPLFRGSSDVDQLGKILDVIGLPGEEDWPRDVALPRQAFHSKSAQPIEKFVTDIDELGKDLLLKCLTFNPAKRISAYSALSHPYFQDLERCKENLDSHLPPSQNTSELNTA
CDK6/cycD3, sequence (P30281 whole entry partner, species assumed): as the sequence (P30281 whole entry partner, species assumed) above
Description: as §1

[5] = molecular target: FAK (Homo sapiens, UniProt Q05397); assay: FAK kinase activity inhibition, Latha screen analysis; assay type: biochemical
FAK, sequence (Q05397 whole entry, species assumed): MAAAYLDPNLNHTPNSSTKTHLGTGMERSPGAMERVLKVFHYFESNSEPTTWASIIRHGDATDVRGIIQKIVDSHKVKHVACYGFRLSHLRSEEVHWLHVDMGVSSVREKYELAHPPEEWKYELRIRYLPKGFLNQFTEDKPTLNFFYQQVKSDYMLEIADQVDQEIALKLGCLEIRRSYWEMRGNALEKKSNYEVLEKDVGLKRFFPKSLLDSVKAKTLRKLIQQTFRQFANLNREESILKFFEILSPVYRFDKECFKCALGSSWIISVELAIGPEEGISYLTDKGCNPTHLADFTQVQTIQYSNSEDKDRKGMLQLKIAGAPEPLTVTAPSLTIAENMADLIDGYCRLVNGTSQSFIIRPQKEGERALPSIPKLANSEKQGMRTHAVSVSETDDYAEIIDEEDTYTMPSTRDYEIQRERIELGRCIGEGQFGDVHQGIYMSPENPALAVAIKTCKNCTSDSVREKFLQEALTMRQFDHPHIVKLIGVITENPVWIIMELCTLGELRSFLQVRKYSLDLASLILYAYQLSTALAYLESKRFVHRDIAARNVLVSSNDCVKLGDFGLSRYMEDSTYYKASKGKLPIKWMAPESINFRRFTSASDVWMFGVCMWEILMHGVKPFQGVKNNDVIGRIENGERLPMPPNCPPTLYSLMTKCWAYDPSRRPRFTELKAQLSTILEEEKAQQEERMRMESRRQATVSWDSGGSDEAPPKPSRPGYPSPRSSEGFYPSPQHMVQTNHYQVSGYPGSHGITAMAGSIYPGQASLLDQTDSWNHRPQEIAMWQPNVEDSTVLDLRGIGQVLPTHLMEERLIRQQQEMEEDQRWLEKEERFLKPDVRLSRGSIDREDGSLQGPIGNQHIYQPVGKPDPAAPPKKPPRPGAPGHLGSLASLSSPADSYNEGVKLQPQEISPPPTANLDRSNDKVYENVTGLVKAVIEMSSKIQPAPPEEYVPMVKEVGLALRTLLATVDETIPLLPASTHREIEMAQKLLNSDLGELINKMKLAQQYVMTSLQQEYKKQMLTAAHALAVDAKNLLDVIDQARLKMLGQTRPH
Description: FAK protein kinase activity was determined by Latha screen analysis. The compound was dissolved in DMSO and diluted with kinase buffer (25 mM HEPES, pH 7.5, 0.01 mM Triton, 10 mM MgCl2, 0.5 mM EGTA, 0.01% BRIJ-35, 2 mM DTT), 2.5 μL was added to the 384-well plate 4 times the final concentration of the compound (4% DMSO). After adding 5 μL of 2-fold FAK enzyme solution, incubate for 10 minutes at room temperature, and then add 2.5 μL of 4 times substrate (Fluorescein-polyGT and ATP) solution. After incubating for 30 minutes at 25° C., 10 μL of the detection solution (antibody of phosphorylation site 2 nM and EDTA 10 mM) was added to terminate the reaction. The data emitted at […] and emitted at 520 nm was read from Envision, and the luminescence reading data was copied from the Envision program, and the value of the luminescence reading was converted to the percent inhibition by a formula. The conversion rate was converted into inhibition rate data (% inhibition rate=(max−conversion rate)/(max−min)*100). “min” is the control fluorescence reading for the reaction without enzyme: “max” is the fluorescence reading of the sample with DMSO added as a control. Curves were plotted with compound concentration and inhibition rate on the horizontal and vertical coordinates, and the curve was fitted using XLFit excel add-in version 4.3.1 software and IC50 was calculated.

[6] = molecular target: T1, FLT3 (Homo sapiens, UniProt P36888); assay: FLT3 kinase activity inhibition, Caliper mobility shift assay; assay type: biochemical
T1 sequence (P36888 27-993): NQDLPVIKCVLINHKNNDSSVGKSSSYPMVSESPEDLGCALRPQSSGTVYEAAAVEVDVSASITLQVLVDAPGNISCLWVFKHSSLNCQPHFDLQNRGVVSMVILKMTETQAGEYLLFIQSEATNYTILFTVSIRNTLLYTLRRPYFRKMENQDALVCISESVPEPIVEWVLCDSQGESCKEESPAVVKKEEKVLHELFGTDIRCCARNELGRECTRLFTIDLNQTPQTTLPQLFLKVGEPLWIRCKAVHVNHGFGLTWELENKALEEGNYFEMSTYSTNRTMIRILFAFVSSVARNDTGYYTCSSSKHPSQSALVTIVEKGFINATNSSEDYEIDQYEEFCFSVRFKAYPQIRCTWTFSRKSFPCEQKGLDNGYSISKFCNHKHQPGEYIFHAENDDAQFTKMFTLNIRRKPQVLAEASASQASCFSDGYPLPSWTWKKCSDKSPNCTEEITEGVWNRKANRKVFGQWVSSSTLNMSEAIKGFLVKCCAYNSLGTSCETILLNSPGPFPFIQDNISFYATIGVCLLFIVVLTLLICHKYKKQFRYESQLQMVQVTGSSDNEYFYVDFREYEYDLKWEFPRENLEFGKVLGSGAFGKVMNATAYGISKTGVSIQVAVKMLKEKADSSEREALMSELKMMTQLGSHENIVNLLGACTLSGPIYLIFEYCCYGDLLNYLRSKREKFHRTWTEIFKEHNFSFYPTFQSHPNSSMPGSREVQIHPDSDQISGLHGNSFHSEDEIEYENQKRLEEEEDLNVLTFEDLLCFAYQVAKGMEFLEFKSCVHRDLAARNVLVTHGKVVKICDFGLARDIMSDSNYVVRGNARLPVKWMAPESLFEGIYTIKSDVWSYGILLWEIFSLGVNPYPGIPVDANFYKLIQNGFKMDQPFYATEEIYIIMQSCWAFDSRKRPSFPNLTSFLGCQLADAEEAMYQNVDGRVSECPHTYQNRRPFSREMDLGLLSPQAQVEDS
Description: FLT3 protein kinase activity was measured using the Caliper mobility shift assay. The compound was dissolved in DMSO and diluted with a kinase buffer (50 mM HEPES, pH 7.5, 0.0015% Brij-35, 2 mM DTT), and 5 μL of a 5-fold final concentration of the compound (10% DMSO) was added to a 384-well plate. After adding 10 μL of 2.5-fold FLT3 enzyme solution, incubate for 10 minutes at room temperature, and then add 10 μL of a 2.5-fold substrate (FAM-labeled polypeptide and ATP) solution. After incubation at 28° C. for 60 minutes, the reaction was stopped by adding 25 μL of stop solution (100 mM HEPES, 0.015% Brij-35, 0.2% Coating Reagent #3, 50 mM EDTA, pH 7.5). Conversion rate data was read on a Caliper EZ Reader II (Caliper Life Sciences). The conversion rate was converted into inhibition rate data (% inhibition rate=(max−conversion rate)/(max−min)*100). Where max is the conversion of the DMSO control and min is the conversion of the enzyme-free control Curves were plotted with compound concentration and inhibition rate on the horizontal and vertical coordinates, and the curve was fitted using XLFit excel add-in version 4.3.1 software and IC50 was calculated.

[7] = molecular target: T2, Axl (Homo sapiens, UniProt P30530); assay: Axl kinase activity inhibition, Caliper mobility shift assay; assay type: biochemical
T2 sequence (P30530 26-894): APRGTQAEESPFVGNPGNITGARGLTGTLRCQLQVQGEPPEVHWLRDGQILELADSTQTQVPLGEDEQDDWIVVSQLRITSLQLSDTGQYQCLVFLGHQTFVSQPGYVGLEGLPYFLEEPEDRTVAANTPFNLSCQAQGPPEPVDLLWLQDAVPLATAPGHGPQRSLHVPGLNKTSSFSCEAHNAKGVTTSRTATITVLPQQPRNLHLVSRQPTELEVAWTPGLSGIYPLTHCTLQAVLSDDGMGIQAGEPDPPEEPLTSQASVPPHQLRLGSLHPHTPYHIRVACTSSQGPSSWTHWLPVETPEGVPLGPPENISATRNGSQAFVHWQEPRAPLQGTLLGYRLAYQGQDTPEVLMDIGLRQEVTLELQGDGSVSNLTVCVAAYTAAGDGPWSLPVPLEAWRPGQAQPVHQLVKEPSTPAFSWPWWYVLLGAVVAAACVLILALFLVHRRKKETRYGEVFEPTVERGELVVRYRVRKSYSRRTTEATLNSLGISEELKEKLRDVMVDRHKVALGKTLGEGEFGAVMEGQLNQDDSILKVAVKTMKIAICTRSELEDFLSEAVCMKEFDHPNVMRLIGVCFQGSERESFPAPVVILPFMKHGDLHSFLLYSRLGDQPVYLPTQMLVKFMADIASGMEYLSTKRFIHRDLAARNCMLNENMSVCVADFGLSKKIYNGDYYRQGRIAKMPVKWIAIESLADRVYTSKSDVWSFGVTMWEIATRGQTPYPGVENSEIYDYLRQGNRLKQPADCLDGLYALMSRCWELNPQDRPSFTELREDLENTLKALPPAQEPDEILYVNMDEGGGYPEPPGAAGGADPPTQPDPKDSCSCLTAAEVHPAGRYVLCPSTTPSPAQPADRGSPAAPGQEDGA
Description: Axl protein kinase activity was determined using the Caliper mobility shift assay. The compound was dissolved in DMSO and diluted with kinase buffer (50 mM HEPES, pH 7.5, 0.0015% Brij-35, 2 mM DTT), and 5 μL of 5 times the final concentration of the compound (10%) was added to the 384-well plate. DMSO). After adding 10 μL of a 2.5-fold Axl enzyme solution, incubate for 10 minutes at room temperature, and then add 10 μL of a 2.5-fold substrate (FAM-labeled polypeptide and ATP) solution. After incubation at 28° C. for 60 minutes, the reaction was stopped by the addition of […] stop solution (100 mM HEPES, 0.015% Brij-35, 0.2% Coating Reagent #3, 50 mM EDTA, pH 7.5). Conversion rate was read on a Caliper EZ Reader II (Caliper Life Sciences). The conversion rate was converted into inhibition rate (% inhibition rate=(max−conversion rate)/(max−min)*100). Where max is the conversion of the DMSO control and min is the conversion of the enzyme-free control. Curves were plotted with compound concentration and inhibition rate on the horizontal and vertical coordinates, and the curve was fitted using XLFit excel add-in version 4.3.1 software and IC50 was calculated.

Row | IC50 [5] [nM] | IC50 [6] [nM] | IC50 [7] [nM] | Compound | further results
1 |  |  |  | Cc1nc2c(F)cc(-c3nc(Nc4ccc5c(c4)OC[C@H]4CN(C6CCOCC6)CCN54)ncc3F)cc2n1C(C)C [Compound B2R] | Cmax [1]: 495 ng/mL; Tmax [1]: 1 h; half-life [1]: 5.72 h; AUC(0-t) ([1]; read-out: AUC(0-24)): 2200 ng·h/mL; IC50 [2]: < 10 nM; IC50 [3]: < 10 nM; IC50 [4]: < 50 nM
2 | < 1 |  |  | CNC(=O)c1ccccc1Nc1cc(Nc2ccc3c(c2)OC[C@H]2CN(C)CCN32)ncc1C(F)(F)F [Compound E1R] | 
3 |  | < 1 | < 10 | CCc1nc(C(N)=O)c(Nc2ccc3c(c2)OC[C@H]2CN(C4CCN(C)CC4)CCN32)nc1NC1CCOCC1 [Compound D6R] | 
4 |  | < 1 | < 10 | CCc1nc(C(N)=O)c(Nc2ccc3c(c2)OC[C@@H]2CN(C)CCN32)nc1NC1CCOCC1 [Compound D1S] | 
5 | < 1 |  |  | CNC(=O)c1ccccc1Nc1cc(Nc2ccc3c(c2)OCC2COCCN32)ncc1C(F)(F)F (stereo not shown) [Compound E1] | 
6 | < 1 |  |  | CNC(=O)c1ccccc1Nc1cc(Nc2ccc3c(c2)OC[C@@H]2CN(C)CCN32)ncc1C(F)(F)F [Compound E1S] | 
7 |  | < 1 | < 10 | CCc1nc(C(N)=O)c(Nc2ccc3c(c2)OC[C@H]2CN(C)CCN32)nc1NC1CCOCC1 [Compound D1R] | 
